Data set [1] in a line: Selectivity index, ratio of GI50 for human HL-60 cells to GI50 for antitrypanosomal activity against Trypanosoma brucei brucei S427. The data set is classed as toxicity. The note with it: read-out: RatioGI50.
Data set [2] is described as follows: Cytotoxicity against human HL-60 cells by resazurin dye based fluorescence assay. The data set is classed as cell-based.
In data set [3] the test system is Trypanosoma brucei brucei. Kind of data set: Antitrypanosomal activity against Trypanosoma brucei brucei S427 by resazurin dye based fluorescence assay. The data set is classed as functional. Background: Resazurin is reduced to fluorescent resorufin, in cell work by metabolically active cells.

Some results are limits rather than exact numbers.

A word on the GI50: it is the concentration at which growth is held to half of that of the control.

Take `CCCCCCCCNC(=O)O[C@H]1C=C[C@]2(O[C@H]([C@@H](CC)C(=O)[C@@H](C)[C@@H](O)[C@H](C)[C@@H]3O[C@@H]([C@@H](CC)C(=O)O)CC[C@@H]3C)[C@@H](C)C[C@H]2C)O[C@@]12CC[C@@](C)([C@H]1CC[C@](O)(CC)[C@H](C)O1)O2`: in data set [1], the selectivity ratio is 123. For the same compound, the values for the GI50 in data set [2] and in data set [3] were 24.6 µM and 0.2 µM, respectively.

Turning to `CC[C@@H](C(=O)[C@@H](C)[C@@H](O)[C@H](C)[C@@H]1O[C@@H]([C@@H](CC)C(=O)O)CC[C@@H]1C)[C@H]1O[C@]2(C=C[C@H](OC(=O)NC(C)(C)C)[C@]3(CC[C@@](C)([C@H]4CC[C@](O)(CC)[C@H](C)O4)O3)O2)[C@H](C)C[C@@H]1C`, the selectivity ratio in data set [1] is greater than 312. In addition, the GI50 in data set [2] was greater than 100 µM; in data set [3], 0.32 µM.

For the compound `CC[C@@H](C(=O)[C@@H](C)[C@@H](O)[C@H](C)[C@@H]1O[C@@H]([C@@H](CC)C(=O)ONC(=O)c2ccccc2)CC[C@@H]1C)[C@H]1O[C@]2(C=C[C@H](O)[C@]3(CC[C@@](C)([C@H]4CC[C@](O)(CC)[C@H](C)O4)O3)O2)[C@H](C)C[C@@H]1C`, in data set [1], the selectivity ratio was 29.8. Besides, the GI50 in data set [2] is 9.54 µM; in data set [3] it was 0.32 µM.

As for `CC[C@@H](C(=O)[C@@H](C)[C@@H](O)[C@H](C)[C@@H]1O[C@@H]([C@@H](CC)C(=O)ONC(=O)c2ccccc2O)CC[C@@H]1C)[C@H]1O[C@]2(C=C[C@H](OC(C)=O)[C@]3(CC[C@@](C)([C@H]4CC[C@](O)(CC)[C@H](C)O4)O3)O2)[C@H](C)C[C@@H]1C`, the selectivity ratio in data set [1] worked out at 353. The figures for the GI50 in data set [2] and in data set [3] were 203 µM and 0.59 µM, respectively.

In the case of `CC[C@@H](C(=O)[C@@H](C)[C@@H](O)[C@H](C)[C@@H]1O[C@@H]([C@@H](CC)C(=O)ONC(=O)c2ccccc2)CC[C@@H]1C)[C@H]1O[C@]2(C=C[C@H](OC(C)=O)[C@]3(CC[C@@](C)([C@H]4CC[C@](O)(CC)[C@H](C)O4)O3)O2)[C@H](C)C[C@@H]1C`, the selectivity ratio in data set [1] came out at 18.2. In addition, the values for the GI50 in data set [2] and in data set [3] were 19.1 µM and 0.47 µM, respectively.

On to `C#CCOC(=O)[C@H](CC)[C@H]1CC[C@H](C)[C@H]([C@@H](C)[C@H](O)[C@H](C)C(=O)[C@H](CC)[C@H]2O[C@]3(C=C[C@H](O)[C@]4(CC[C@@](C)([C@H]5CC[C@](O)(CC)[C@H](C)O5)O4)O3)[C@H](C)C[C@@H]2C)O1`, for which the selectivity ratio in data set [1] was greater than 3.7. The GI50 was greater than 100 µM in data set [2] and 26.9 µM in data set [3].

Consider `CC[C@@H](C(=O)[C@@H](C)[C@@H](O)[C@H](C)[C@@H]1O[C@@H]([C@@H](CC)C(=O)O)CC[C@@H]1C)[C@H]1O[C@]2(C=C[C@H](OC(=O)OCC(C)(C)C)[C@]3(CC[C@@](C)([C@H]4CC[C@](O)(CC)[C@H](C)O4)O3)O2)[C@H](C)C[C@@H]1C`, for which, in data set [1], the selectivity ratio was determined as 2. The figures for the GI50 in data set [2] and in data set [3] were 42.4 µM and 21.6 µM, respectively.

As for `CC[C@@H](C(=O)[C@@H](C)[C@@H](O)[C@H](C)[C@@H]1O[C@@H]([C@@H](CC)C(=O)O)CC[C@@H]1C)[C@H]1O[C@]2(C=C[C@H](OC(=O)C34CC5CC(CC(C5)C3)C4)[C@]3(CC[C@@](C)([C@H]4CC[C@](O)(CC)[C@H](C)O4)O3)O2)[C@H](C)C[C@@H]1C`, the selectivity ratio in data set [1] was found to be 55. Further, the GI50 turned out to be 18.7 µM in data set [2] and 0.24 µM in data set [3].

Regarding `C#CCNC(=O)[C@H](CC)[C@H]1CC[C@H](C)[C@H]([C@@H](C)[C@H](O)[C@H](C)C(=O)[C@H](CC)[C@H]2O[C@]3(C=C[C@H](O)[C@]4(CC[C@@](C)([C@H]5CC[C@](O)(CC)[C@H](C)O5)O4)O3)[C@H](C)C[C@@H]2C)O1`, in data set [1], the selectivity ratio was determined as 15.1. The GI50 was 44.8 µM in data set [2] and 2.97 µM in data set [3].

The record behind these values is ChEMBL document CHEMBL4732069, “Singly and doubly modified analogues of C20-epi-salinomycin: A new group of antiparasitic agents against Trypanosoma brucei” (Eur J Med Chem, 2021).
